Data from ChEMBL document CHEMBL1201862, “PubChem BioAssay data set” (2004).
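The compound was tested at five concentrations on cells cultured in 96-well plates, with a 48-hour exposure period. At the GI50, growth is halved.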 Activity calls are given as the source filed them. Rule as the data show it: active = GI50 up to about 1.1 µM and inactive = higher.

What was measured:
Assay in all cases: NCI-60 cell line screen, 48 h
SK-MEL-5 = tested on: SK-MEL-5
A549 = tested on: A549
786-0 = tested on: 786-0
Malme-3M = tested on: Malme-3M
U-251 = tested on: U-251
TK-10 = tested on: TK-10
KM-20L2 = tested on: KM-20L2
SNB-75 = tested on: SNB-75
HCT-15 = tested on: HCT-15
HOP-62 = tested on: HOP-62
LOX IMVI = tested on: LOX IMVI
SF-295 = tested on: SF-295
BT-549 = tested on: BT-549
MCF7 = tested on: MCF7
T47D = tested on: T47D
DU-145 = tested on: DU-145
HL-60 = tested on: HL-60
NCI-H226 = tested on: NCI-H226
MDA-N = tested on: MDA-N
MDA-MB-231 = tested on: MDA-MB-231

Compound	GI50 (SK-MEL-5)	GI50 (A549)	GI50 (786-0)	GI50 (Malme-3M)	GI50 (U-251)	GI50 (TK-10)	GI50 (KM-20L2)	GI50 (SNB-75)	GI50 (HCT-15)	GI50 (HOP-62)	GI50 (LOX IMVI)	GI50 (SF-295)	GI50 (BT-549)	GI50 (MCF7)	GI50 (T47D)	GI50 (DU-145)	GI50 (HL-60)	GI50 (NCI-H226)	GI50 (MDA-N)	GI50 (MDA-MB-231)
CCOC(=O)c1cc(OC(=O)CC)c2c(OC)ccc(OC)c2c1	> 100 µM (inactive)	> 100 µM (inactive)	31 µM (inactive)	> 100 µM (inactive)	53.6 µM (inactive)	47.1 µM (inactive)	> 10 µM (inactive)	11.4 µM (inactive)	25.9 µM											
CN(C)c1n2c3cc([N+](=O)[O-])ccc3[n+]3c(N(C)C)n4ccccc4c3c2c2cccc[n+]12.[O-][Cl+3]([O-])([O-])[O-].[O-][Cl+3]([O-])([O-])[O-]	> 100 µM (inactive)	> 100 µM (inactive)	> 100 µM (inactive)	> 100 µM (inactive)	51.1 µM (inactive)	> 100 µM (inactive)		> 100 µM (inactive)	> 100 µM	> 100 µM (inactive)	> 100 µM (inactive)	> 100 µM (inactive)	> 100 µM (inactive)	8.57 µM (inactive)	73.3 µM (inactive)	> 100 µM (inactive)	> 100 µM (inactive)	> 100 µM (inactive)	> 100 µM (inactive)	> 100 µM (inactive)
Cn1c(=O)cc(/N=N\c2ccc(Cl)c(Cl)c2)[nH]c1=O	35.2 µM (inactive)	> 100 µM (inactive)	17.6 µM (inactive)	16.1 µM (inactive)	23.3 µM (inactive)	23.8 µM (inactive)		49.2 µM (inactive)	19.6 µM	> 100 µM (inactive)	19.2 µM (inactive)	> 100 µM (inactive)	29 µM (inactive)	26.7 µM (inactive)	29.7 µM (inactive)	85.5 µM (inactive)	20.8 µM (inactive)	> 100 µM (inactive)	18.7 µM (inactive)	24.8 µM (inactive)
Oc1ccc(/C=C/c2cc(O)cc3c2C(c2cc(O)cc(O)c2)C(c2ccc(O)c(O)c2)O3)cc1 (stereo not given)	17.2 µM (inactive)	45.6 µM (inactive)	41.8 µM (inactive)	26.7 µM (inactive)	31 µM (inactive)	27.1 µM (inactive)		49.5 µM (inactive)	20 µM	35.9 µM (inactive)	27 µM (inactive)	36.6 µM (inactive)	23.7 µM (inactive)	33.3 µM (inactive)	13.1 µM (inactive)	35.1 µM (inactive)	27.1 µM (inactive)	26 µM (inactive)	18.2 µM (inactive)	29 µM (inactive)
CC1=NNC(=S)NCCCN2CCN(CCCNC(=S)NN=C(C)C=NNC(=S)NCCCN3CCN(CCCNC(=S)NN=C1)CC3)CC2	> 100 µM (inactive)	> 100 µM (inactive)	> 100 µM (inactive)	> 100 µM (inactive)	> 100 µM (inactive)	> 100 µM (inactive)		> 100 µM (inactive)	> 100 µM	> 100 µM (inactive)	> 100 µM (inactive)	> 100 µM (inactive)	> 100 µM (inactive)	> 100 µM (inactive)	> 100 µM (inactive)	> 100 µM (inactive)	> 100 µM (inactive)	> 100 µM (inactive)	> 100 µM (inactive)	> 100 µM (inactive)
COc1cc(OC)c2c(=O)c(OC)c(-c3ccc4c(c3)OCO4)oc2c1	47.3 µM (inactive)	> 100 µM (inactive)	36 µM (inactive)	> 100 µM (inactive)	16.6 µM (inactive)	45 µM (inactive)		15.9 µM (inactive)	> 100 µM	23.5 µM (inactive)	15.8 µM (inactive)	22.2 µM (inactive)	71.1 µM (inactive)	> 100 µM (inactive)	23.1 µM (inactive)	48.5 µM (inactive)	20.9 µM (inactive)	46.3 µM (inactive)	> 100 µM (inactive)	49.9 µM (inactive)
NC(CNO)C(=O)O (stereo not given)	> 100 µM (inactive)	> 100 µM (inactive)	> 100 µM (inactive)	> 100 µM (inactive)	> 100 µM (inactive)	> 100 µM (inactive)		> 100 µM (inactive)	> 100 µM	> 100 µM (inactive)	> 100 µM (inactive)	> 100 µM (inactive)	> 100 µM (inactive)	> 100 µM (inactive)	> 100 µM (inactive)	> 100 µM (inactive)	6.79 µM (inactive)	> 100 µM (inactive)	> 100 µM (inactive)	> 100 µM (inactive)
N=C(N)NS(=O)(=O)c1ccc(NCc2cccc3c(=O)c4ccc(Cl)cc4oc23)cc1	9.4 µM (inactive)	> 6.75 µM (inactive)	9.1 µM (inactive)	4.59 µM (inactive)	5.22 µM (inactive)	> 10.4 µM (inactive)		3.08 µM (inactive)	4.93 µM	> 10.2 µM (inactive)	4.48 µM (inactive)	> 9.35 µM (inactive)	7.18 µM (inactive)	7.45 µM (inactive)	> 6.18 µM (inactive)	5.57 µM (inactive)	1.38 µM (inactive)	> 25 µM (inactive)	5.27 µM (inactive)	> 10.8 µM (inactive)
O=C(Nc1cc(C(=O)Nc2cccc(S(=O)(=O)O)c2)cc(C(=O)Nc2cccc(S(=O)(=O)O)c2)c1)c1cccc(C(=O)Nc2cc(C(=O)Nc3cccc(S(=O)(=O)O)c3)cc(C(=O)Nc3cccc(S(=O)(=O)O)c3)c2)c1	> 100 µM (inactive)	> 100 µM (inactive)	> 100 µM (inactive)	> 100 µM (inactive)	> 100 µM (inactive)	> 100 µM (inactive)		> 100 µM (inactive)	50.7 µM	> 100 µM (inactive)	> 100 µM (inactive)	> 100 µM (inactive)	> 100 µM (inactive)	> 100 µM (inactive)	> 100 µM (inactive)	> 100 µM (inactive)	17.7 µM (inactive)	> 100 µM (inactive)	> 100 µM (inactive)	> 100 µM (inactive)
CC(=O)[C@@]1(O)CC[C@H]2[C@@H]3C[C@H](C)C4=CC(=O)CC[C@]4(C)[C@H]3[C@@H](O)C[C@@]21C	> 100 µM (inactive)	60.1 µM (inactive)	> 100 µM (inactive)	> 100 µM (inactive)	> 100 µM (inactive)	> 100 µM (inactive)		> 100 µM (inactive)	> 100 µM	> 100 µM (inactive)	> 100 µM (inactive)	> 100 µM (inactive)	> 100 µM (inactive)	> 100 µM (inactive)	94.2 µM (inactive)	> 100 µM (inactive)	> 100 µM (inactive)	> 100 µM (inactive)	> 100 µM (inactive)	> 100 µM (inactive)
COC(=O)CCc1cc(OC)c2c(c1)[C@H](C(=O)OC)[C@@H](c1ccc(O)c(OC)c1)O2	35 µM (inactive)	39.5 µM (inactive)	46.3 µM (inactive)	29.9 µM (inactive)	38.4 µM (inactive)	> 100 µM (inactive)		43.3 µM (inactive)	32.7 µM	77.1 µM (inactive)	57.5 µM (inactive)	47.1 µM (inactive)	44.8 µM (inactive)	49.2 µM (inactive)	55.5 µM (inactive)	> 100 µM (inactive)	15.5 µM (inactive)	> 100 µM (inactive)	17.7 µM (inactive)	50.6 µM (inactive)
CN(c1cn(C2CC[C@@H](CO)O2)c(=O)[nH]c1=O)C1CCCCC1 (stereo not given in full)	> 100 µM (inactive)	> 100 µM (inactive)	> 100 µM (inactive)	> 100 µM (inactive)	> 100 µM (inactive)	> 100 µM (inactive)		21.9 µM (inactive)	> 100 µM	> 100 µM (inactive)	> 100 µM (inactive)	> 100 µM (inactive)	> 100 µM (inactive)	> 100 µM (inactive)	> 100 µM (inactive)	> 100 µM (inactive)	> 100 µM (inactive)	> 100 µM (inactive)	> 100 µM (inactive)	> 100 µM (inactive)
O=C(Nc1nc2ccccc2s1)c1cc([N+](=O)[O-])ccc1Cl	7.6 µM (inactive)	6.17 µM (inactive)	11.1 µM (inactive)	23.7 µM (inactive)	6.43 µM (inactive)	66.4 µM (inactive)		13.8 µM (inactive)	4.63 µM	13.6 µM (inactive)	3.44 µM (inactive)	22.3 µM (inactive)	5.92 µM (inactive)	0.91 µM (active)	13.9 µM (inactive)	6.84 µM (inactive)	1.78 µM (inactive)	16.9 µM (inactive)	3.58 µM (inactive)	> 55.1 µM (inactive)
CCOC(=O)c1cn(CC)c2ccc3ccsc3c2c1=O	> 100 µM (inactive)	> 100 µM (inactive)	> 100 µM (inactive)	> 100 µM (inactive)	5.46 µM (inactive)	> 100 µM (inactive)		69.5 µM (inactive)	> 100 µM	> 100 µM (inactive)	> 100 µM (inactive)	> 100 µM (inactive)	> 100 µM (inactive)	> 100 µM (inactive)	> 100 µM (inactive)	> 100 µM (inactive)	> 100 µM (inactive)	> 100 µM (inactive)	> 100 µM (inactive)	> 100 µM (inactive)
CC1(C)OCC(C2OC3OC(C)(C)OC3C2N)O1 (stereo not given)	> 100 µM (inactive)	> 100 µM (inactive)	> 100 µM (inactive)	> 100 µM (inactive)	> 100 µM (inactive)	> 100 µM (inactive)		> 100 µM (inactive)	> 100 µM	> 100 µM (inactive)	> 100 µM (inactive)	> 100 µM (inactive)	> 100 µM (inactive)	> 100 µM (inactive)	> 100 µM (inactive)	> 100 µM (inactive)	> 100 µM (inactive)	> 100 µM (inactive)	> 100 µM (inactive)	> 100 µM (inactive)
